# Measured values from patent publication US7622594B2, “Glucocortioid mimetics, methods of making them, pharmaceutical compositions, and uses thereof” (Boehringer Ingelheim Pharmaceuticals, Inc., priority 2005, dated 2009).
# Tested on: IL-6 production in human foreskin fibroblast cells
# Assay: Inhibition of IL-6 production in fibroblasts (cell assay for transrepression)
# Assay type: cell-based
# Conditions: IL-1 stimulated human foreskin fibroblasts
# Protocol: Human foreskin fibroblast cells produce IL-6 in response to stimulation by proinflammatory cytokine IL-1.
# Human foreskin fibroblast cells (ATCC Cat. No. CRL-2429) are plated on 96 well plates at 5,000 cells per well the day before use, in Iscove's Modified Dulbecco's Media (GibcoBRL Life Technologies Cat. No. 12440-053) supplemented with 10% charcoal filtered FBS (Clonetech Cat. No. SH30068) and Gentamycin (GibcoBRL Life Technologies Cat. No. 15710-064). On the next day, media in the wells is replaced with fresh media. Cells are treated with IL-1 (rhIL-1α, R&D Systems Cat. No. 200-LA) to a final concentration of 1 ng/mL, and with test compounds to final concentrations of 10^−5 M to 10^−8 M, in a total volume of 200 μL per well. Samples are done in duplicates. […] Positive control wells receive IL-1 only and represent maximum (or 100%) amount of IL-6 production. Plates are incubated at 37° C. overnight (15 to 18 hours), and supernatants are harvested at the end of incubation. IL-6 levels in the supernatants are determined by the ELISA kits for IL-6 (MedSystems Diagnostics GmbH, Vienna, Austria, Cat. No. BMS213TEN) according to manufacture's instructions. The extent of inhibition of IL-6 by test compounds is expressed in percentage relative to positive controls. IC50 values of test compounds are derived by non-linear curve fitting.
row,SMILES,agonistic activity by inhibiting IL-6 production in Fibroblasts
1,"OC(c1ccc(F)c(Cl)c1)(c1ccc2c(cnn2-c2ccc(F)cc2)c1)C(F)(F)F (stereo not shown) [1-(3-Chloro-4-fluorophenyl)-2,2,2-trifluoro-1-[1-(4-fluorophenyl)-1H-indazol-5-yl]ethanol]",agonistic activity
2,"OC(c1ccc2c(cnn2-c2ccc(F)cc2)c1)(c1ccc(F)c2ccccc12)C(F)(F)F (stereo not shown) [2,2,2-Trifluoro-1-(4-fluoronaphthalen-1-yl)-1-[1-(4-fluorophenyl)-1H-indazol-5-yl]ethanol]",agonistic activity
3,"Cc1ccc(C(O)(c2ccc3c(cnn3-c3ccc(F)cc3)c2)C(F)(F)F)c2ccccc12 (stereo not shown) [2,2,2-Trifluoro-1-[1-(4-fluorophenyl)-1H-indazol-5-yl]-1-(4-methylnaphthalen-1-yl)ethanol]",agonistic activity
4,"OC(c1ccc2c(cnn2-c2ccccc2)c1)(c1cccc2ccccc12)C(F)(F)F (stereo not shown) [2,2,2-Trifluoro-1-naphthalen-1-yl-1-(1-phenyl-1H-indazol-5-yl)ethanol]",agonistic activity
5,"OC(c1ccc2c(cnn2-c2ccc(F)cc2)c1)(c1cccc2ccccc12)C(F)(F)F (stereo not shown) [2,2,2-Trifluoro-1-[1-(4-fluorophenyl)-1H-indazol-5-yl]-1-naphthalen-1-ylethanol]",agonistic activity
6,"OC(c1ccc2c(cnn2-c2ccccc2)c1)(c1ccc(F)c2ccccc12)C(F)(F)F (stereo not shown) [2,2,2-Trifluoro-1-(4-fluoronaphthalen-1-yl)-1-(1-phenyl-1H-indazol-5-yl)ethanol]",agonistic activity
7,"OC(c1ccc2c(cnn2-c2ccc(F)cc2)c1)(c1csc2ccccc12)C(F)(F)F (stereo not shown) [1-Benzo[b]thiophen-3-yl-2,2,2-trifluoro-1-[1-(4-fluorophenyl)-1H-indazol-5-yl]ethanol]",agonistic activity
8,"OC(c1ccc2c(cnn2-c2ccccc2)c1)(c1csc2ccccc12)C(F)(F)F (stereo not shown) [1-Benzo[b]thiophen-3-yl-2,2,2-trifluoro-1-(1-phenyl-1H-indazol-5-yl)ethanol]",agonistic activity
9,"OC(c1ccc2c(cnn2-c2ccccc2)c1)(c1ccnc2ccccc12)C(F)(F)F (stereo not shown) [2,2,2-Trifluoro-1-(1-phenyl-1H-indazol-5-yl)-1-quinolin-4-ylethanol]",agonistic activity
10,"OC(c1ccc(F)c(Cl)c1)(c1ccc2c(cnn2-c2ccccc2)c1)C(F)(F)F (stereo not shown) [1-(3-Chloro-4-fluorophenyl)-2,2,2-trifluoro-1-(1-phenyl-1H-indazol-5-yl)ethanol]",agonistic activity
